Measured values reported in the NIST ThermoML archive (doi:10.1016/j.jct.2005.04.011).

Key:
[1] = refractive index (Na D-line) (dimensionless); cn = amount concentration of the nth substance listed, in mol/dm3; details: 101 kPa, Liquid, Standard Abbe refractometry, c1 = 0.2
[2] = cn = amount concentration of the nth substance listed, in mol/dm3; details: 101 kPa, Liquid, c1 = 0.2; for mass density: Pycnometric method

O=C[C@H](O)[C@@H](O)[C@H](O)[C@H](O)CO [D-glucose] + O
Details	mass density, 298.15 K [kg/m3]	mass density, 313.15 K [kg/m3]	refractive index, 298.15 K	refractive index, 303.15 K	refractive index, 308.15 K	refractive index, 313.15 K	viscosity, 298.15 K [mPa·s]	viscosity, 303.15 K [mPa·s]	viscosity, 308.15 K [mPa·s]	viscosity, 313.15 K [mPa·s]
[1]	–	–	1.336	1.335	1.3349	1.334	–	–	–	–
[2]	1010.3	1005.3	–	–	–	–	1.01	0.89	0.8	0.7
